Here are results for 20 compounds from ChEMBL document CHEMBL3217679, “Synthesis and biological activity profile of novel 2-cinnamylidene-1,3-diones related to coruscanone A: promising new antileishmanial agents” (Medchemcomm, 2012).

A word on the IC50: it is the midpoint of a concentration-inhibition curve. What is called IC90 is the concentration needed for an effect of 90%.

Active and inactive are the calls of the source. The rule behind the calls is not given here.

Series [1] in a line: Cytotoxicity against African green monkey Vero cells by neutral red assay. In kind it is cell-based. The note with it: chlorocebus sabaeus, read-out: TC50 (the source's name).
The next series relates to Cryptococcus neoformans. The experiment in a line: Antifungal activity against Cryptococcus neoformans ATCC 90113 assessed as growth inhibition after 70 to 74 hrs by modified CLSI method. In kind it is functional, organism-based.
For the next series, the system named is Candida albicans. Kind of series: Antifungal activity against Candida albicans ATCC 90028 assessed as growth inhibition after 46 to 50 hrs by modified CLSI method. In kind it is functional, organism-based.
The test system of a further series is Leishmania donovani. Kind of series: Antiparasitic activity against Leishmania donovani S1 promastigotes assessed as growth inhibition after 72 hrs by alamar blue assay. Type of series: functional, organism-based. To be noted: S1, 72 h. In general terms: Resazurin is reduced to fluorescent resorufin, in cell work by metabolically active cells.
Series [2] has as its system Plasmodium falciparum. The experiment in a line: Antiparasitic activity against chloroquine-sensitive Plasmodium falciparum D6 assessed as growth inhibition at 16 uM after 48 hrs by pLDH assay. In kind it is functional, organism-based.
The subject of another series is Aspergillus fumigatus. The experiment in a line: Antifungal activity against Aspergillus fumigatus ATCC 90906 assessed as growth inhibition after 46 to 50 hrs by alamar blue assay. In kind it is functional, organism-based.
The next series relates to Nakaseomyces glabratus. The experiment in a line: Antifungal activity against Candida glabrata ATCC 90030 assessed as growth inhibition after 46 to 50 hrs by modified CLSI method. Type of series: functional, organism-based.
For series [3], the system named is Plasmodium falciparum. Kind of series: Antiparasitic activity against chloroquine-resistant Plasmodium falciparum W2 assessed as growth inhibition at 16 uM after 48 hrs by pLDH assay. In kind it is functional, organism-based.
Another series concerns Pichia kudriavzevii. The experiment in a line: Antifungal activity against Candida krusei ATCC 6258 assessed as growth inhibition after 46 to 50 hrs by modified CLSI method. In kind it is functional, organism-based.

As to `COC(/C=C/c1ccccc1)=C1\C(=O)C=C(C)C1=O` [CORUSCANONE A], the CC50 in series [1] amounted to 19.3 µM.
For `CC1(C)CC(=O)C(=C/C=C/c2ccc(Br)cc2)C(=O)C1`, the half-maximal inhibitory concentration (IC50) was 24.7 µM in the series on Cryptococcus neoformans, 9.6 µM in the series with Leishmania donovani, more than 60 µM in the series on Nakaseomyces glabratus and more than 60 µM with Pichia kudriavzevii. For the same compound, the “growth inhibition (GI)” value in the series on Candida albicans, with Plasmodium falciparum [2], with Aspergillus fumigatus and in the series with Plasmodium falciparum [3] was “inactive” in each case. The CC50 in [1] was more than 14.3 µM. Moreover, the IC90 in the series with Leishmania donovani turned out to be 18.6 µM.
As for `C/C=C/C=C/C=C1C(=O)CCCC1=O`, the 50% inhibitory concentration (IC50) was more than 60 µM with Cryptococcus neoformans, 56.8 µM in the series on Leishmania donovani, more than 60 µM in the series on Nakaseomyces glabratus and more than 60 µM with Pichia kudriavzevii. The “growth inhibition (GI)” value with Candida albicans, with Plasmodium falciparum [2], in the series on Aspergillus fumigatus and in the series with Plasmodium falciparum [3] was “inactive” in each case. For the same compound, the CC50 in [1] is more than 25 µM. Moreover, the IC90 with Leishmania donovani was more than 100 µM.
For the compound `COc1ccc(/C=C/C=C2C(=O)CC(c3ccccc3)CC2=O)cc1` (centres undefined), the IC50 with Cryptococcus neoformans is more than 60 µM; with Leishmania donovani it was 7.52 µM; in the series on Nakaseomyces glabratus, more than 60 µM; with Pichia kudriavzevii it was more than 60 µM. Also, the “growth inhibition (GI)” value with Candida albicans, with Plasmodium falciparum [2], in the series on Aspergillus fumigatus and with Plasmodium falciparum [3] was “inactive” in each case. Besides, in series [1], the CC50 was more than 14.3 µM. In addition, the concentration for an effect of 90% (IC90) in the series on Leishmania donovani worked out at 14.7 µM.
Consider `CC1(C)CC(=O)C(=C/C=C/c2ccc(F)cc2)C(=O)C1`, for which the 50% inhibitory concentration (IC50) in the series with Cryptococcus neoformans is 16.6 µM; in the series on Leishmania donovani, 10.7 µM; in the series with Nakaseomyces glabratus it was 35.6 µM; in the series with Pichia kudriavzevii it was more than 60 µM. Moreover, the “growth inhibition (GI)” value in the series with Candida albicans, in the series on Plasmodium falciparum [2], in the series with Aspergillus fumigatus and in the series on Plasmodium falciparum [3] was “inactive” in each case. In addition, in [1], the CC50 was more than 17.5 µM. Besides, the 90% effect concentration (IC90) with Leishmania donovani stood at 25 µM.
Turning to `CC1(C)CCC(=O)/C(=C\C=C\c2ccccc2)C1=O`, the IC50 in the series with Cryptococcus neoformans is 19.9 µM; with Leishmania donovani, 11.8 µM; in the series on Nakaseomyces glabratus, more than 60 µM; with Pichia kudriavzevii, more than 60 µM. Further, the “growth inhibition (GI)” value in the series with Candida albicans, in the series with Plasmodium falciparum [2], with Aspergillus fumigatus and with Plasmodium falciparum [3] was “inactive” in each case. In addition, the CC50 in [1] was more than 18.7 µM. Further, the concentration for an effect of 90% (IC90) in the series on Leishmania donovani was 20.1 µM.
Turning to `COc1ccc(/C=C/C=C2C(=O)CC(C)(C)CC2=O)cc1`, the IC50 is 38.2 µM in the series with Cryptococcus neoformans, 30.6 µM in the series with Leishmania donovani, more than 60 µM in the series with Nakaseomyces glabratus and more than 60 µM in the series with Pichia kudriavzevii. Moreover, the “growth inhibition (GI)” value in the series on Candida albicans, in the series with Plasmodium falciparum [2], in the series on Aspergillus fumigatus and in the series with Plasmodium falciparum [3] was “inactive” in each case. Moreover, the CC50 in series [1] was more than 16.7 µM. Also, the IC90 with Leishmania donovani was 68.9 µM.
For the compound `O=C1CCC(=O)C1=C/C=C/c1ccccc1`, the IC50 was 11.9 µM in the series on Cryptococcus neoformans, 2.16 µM with Leishmania donovani, more than 60 µM in the series on Nakaseomyces glabratus and 42.6 µM in the series on Pichia kudriavzevii. The “growth inhibition (GI)” value in the series on Candida albicans, in the series on Plasmodium falciparum [2], with Aspergillus fumigatus and with Plasmodium falciparum [3] was “inactive” in each case. In addition, the CC50 in series [1] was more than 22.4 µM. Further, in the series on Leishmania donovani, the 90% effect concentration (IC90) turned out to be 3.58 µM.
With `CC1(C)CC(=O)C(=C/C=C/c2ccccc2)C(=O)C1`, the IC50 was 19 µM with Cryptococcus neoformans, 20.1 µM in the series with Leishmania donovani, 35.3 µM with Nakaseomyces glabratus and more than 60 µM in the series with Pichia kudriavzevii. Moreover, the “growth inhibition (GI)” value in the series with Candida albicans, with Plasmodium falciparum [2], in the series with Aspergillus fumigatus and in the series with Plasmodium falciparum [3] was “inactive” in each case. Besides, the CC50 in series [1] is more than 18.7 µM. Besides, the 90% effect concentration (IC90) in the series on Leishmania donovani came to 27.5 µM.
On to `O=C1CCCC(=O)C1=CC=C(c1ccccc1)c1ccccc1`, for which the half-inhibitory concentration (IC50) was 14.5 µM with Cryptococcus neoformans, 10.2 µM in the series with Leishmania donovani, more than 60 µM in the series on Nakaseomyces glabratus and more than 60 µM in the series with Pichia kudriavzevii. In addition, the “growth inhibition (GI)” value in the series with Candida albicans, in the series with Plasmodium falciparum [2], with Aspergillus fumigatus and in the series on Plasmodium falciparum [3] was “inactive” each time. In addition, the CC50 in series [1] was more than 15.7 µM. The IC90 in the series on Leishmania donovani was found to be 26.1 µM.
In the case of `CC(=O)/C(=C\C=C\c1ccccc1)C(=O)OC(C)(C)C`, the half-inhibitory concentration (IC50) is more than 60 µM with Cryptococcus neoformans, 46.6 µM in the series with Leishmania donovani, more than 60 µM in the series on Nakaseomyces glabratus and more than 60 µM with Pichia kudriavzevii. Also, the “growth inhibition (GI)” value in the series with Candida albicans, with Plasmodium falciparum [2], with Aspergillus fumigatus and in the series on Plasmodium falciparum [3] was “inactive” in each case. In addition, the CC50 in [1] is more than 17.5 µM. The 90% effect concentration (IC90) with Leishmania donovani turned out to be 99.2 µM.
Regarding `COc1ccc(/C=C/C=C(C(C)=O)C(C)=O)cc1`, the IC50 in the series with Cryptococcus neoformans was more than 60 µM; in the series with Leishmania donovani, 38.5 µM; in the series with Nakaseomyces glabratus, more than 60 µM; in the series with Pichia kudriavzevii, more than 60 µM. In addition, the “growth inhibition (GI)” value with Candida albicans, with Plasmodium falciparum [2], in the series with Aspergillus fumigatus and in the series with Plasmodium falciparum [3] was “inactive” each time. In addition, the CC50 in series [1] was more than 19.5 µM. In addition, in the series with Leishmania donovani, the 90% effect concentration (IC90) is more than 100 µM.
In the case of `COc1ccc(/C=C/C=C2C(=O)CCC2=O)cc1`, the IC50 in the series with Cryptococcus neoformans came out at 13.4 µM; with Leishmania donovani, 7.01 µM; in the series on Nakaseomyces glabratus it was 35 µM; in the series on Pichia kudriavzevii, 24.1 µM. The “growth inhibition (GI)” value in the series with Candida albicans and with Aspergillus fumigatus was “inactive” in each case. The CC50 in series [1] is more than 19.6 µM. In the series with Leishmania donovani, the concentration for an effect of 90% (IC90) amounted to 19.8 µM.
On to `CC1(C)CC(=O)C(=CC=C(c2ccccc2)c2ccccc2)C(=O)C1`, for which the concentration for half-maximal inhibition (IC50) was 23.6 µM in the series on Cryptococcus neoformans, 9.38 µM in the series on Leishmania donovani, more than 60 µM in the series on Nakaseomyces glabratus and more than 60 µM in the series with Pichia kudriavzevii. The “growth inhibition (GI)” value in the series with Candida albicans, in the series on Plasmodium falciparum [2], with Aspergillus fumigatus and in the series on Plasmodium falciparum [3] was “inactive” in each case. Also, the CC50 in [1] is more than 14.4 µM. Besides, in the series on Leishmania donovani, the concentration for an effect of 90% (IC90) is 26.6 µM.
As for `CC(=O)C(=C/C=C/c1ccc(Br)cc1)C(C)=O`, the half-maximal inhibitory concentration (IC50) was 11.7 µM in the series on Cryptococcus neoformans, 9.55 µM in the series with Leishmania donovani, more than 60 µM with Nakaseomyces glabratus and more than 60 µM with Pichia kudriavzevii. Further, the “growth inhibition (GI)” value with Candida albicans, in the series on Plasmodium falciparum [2], with Aspergillus fumigatus and in the series with Plasmodium falciparum [3] was “inactive” in each case. In addition, in [1], the CC50 is more than 16.2 µM. In addition, in the series on Leishmania donovani, the concentration for an effect of 90% (IC90) came out at 24.6 µM.
With `O=C1CCC(=O)C1=C/C=C/c1ccc(Br)cc1`, the half-maximal inhibitory concentration (IC50) was 26.9 µM in the series with Cryptococcus neoformans, 8.58 µM in the series with Leishmania donovani, more than 60 µM in the series on Nakaseomyces glabratus and more than 60 µM in the series on Pichia kudriavzevii. Also, the “growth inhibition (GI)” value with Candida albicans, in the series on Plasmodium falciparum [2], in the series on Aspergillus fumigatus and in the series on Plasmodium falciparum [3] was “inactive” in each case. Further, the CC50 in series [1] is more than 16.3 µM. The concentration for an effect of 90% (IC90) in the series on Leishmania donovani is 14.1 µM.
For the compound `N=C(N)c1ccc(OCCCCCOc2ccc(C(=N)N)cc2)cc1` [PENTAMIDINE], the “growth inhibition (GI)” value in the series with Candida albicans was “inactive”. Also, in the series on Leishmania donovani, the IC50 was 3.82 µM and the 90% effect concentration (IC90) is 12.4 µM.
As to `CC(=O)C(=CC=C(c1ccccc1)c1ccccc1)C(C)=O`, the IC50 in the series with Cryptococcus neoformans was 35.3 µM; in the series on Leishmania donovani, 9.29 µM; in the series with Nakaseomyces glabratus, more than 60 µM; with Pichia kudriavzevii it was more than 60 µM. Also, the “growth inhibition (GI)” value with Candida albicans, with Plasmodium falciparum [2], in the series on Aspergillus fumigatus and with Plasmodium falciparum [3] was “inactive” each time. Also, the CC50 in series [1] was more than 16.4 µM. Besides, the concentration for an effect of 90% (IC90) in the series on Leishmania donovani was determined as 66.1 µM.
For the compound `COc1ccc(/C=C/C=C2C(=O)CCCC2=O)cc1`, the half-inhibitory concentration (IC50) was 44.7 µM with Cryptococcus neoformans, 19.5 µM with Leishmania donovani, 56 µM in the series with Nakaseomyces glabratus and more than 60 µM in the series on Pichia kudriavzevii. Moreover, the “growth inhibition (GI)” value in the series with Candida albicans, in the series with Plasmodium falciparum [2], in the series with Aspergillus fumigatus and in the series with Plasmodium falciparum [3] was “inactive” in each case. Also, the CC50 in [1] is more than 18.6 µM. The concentration for an effect of 90% (IC90) with Leishmania donovani amounted to 91.7 µM.
Take `C[C@@H]1[C@H](O)[C@@H](C)/C=C/C=C/C=C/C=C/C=C/C=C/C=C/[C@H](O[C@@H]2O[C@H](C)[C@@H](O)[C@H](N)[C@@H]2O)C[C@@H]2O[C@](O)(C[C@@H](O)C[C@@H](O)[C@H](O)CC[C@@H](O)C[C@@H](O)CC(=O)O[C@H]1C)C[C@H](O)[C@H]2C(=O)O` [AMPHOTERICIN B]: the IC50 in the series with Cryptococcus neoformans was found to be 0.35 µM; in the series with Leishmania donovani, 0.31 µM; in the series on Nakaseomyces glabratus, 0.28 µM; in the series with Pichia kudriavzevii it was 0.78 µM. Besides, in the series on Candida albicans, the “growth inhibition (GI)” value was “inactive”. The CC50 in series [1] came to 7.6 µM. Besides, in the series with Leishmania donovani, the concentration for an effect of 90% (IC90) is 1.09 µM.
